Measured values published in PMC10046369, “Low-Affinity/High-Selectivity Dopamine Transport Inhibition Sufficient to Rescue Cognitive Functions in the Aging Rat” (Biomolecules, 2023).

Columns and labels:
Experiment in all cases: biochemical
Set-up in all cases: KINOMEscan competition binding panel, per cent of control
Settings in all cases: read-out: %Ctrl @ 2800nM
PRKG2 = PRKG2 (Homo sapiens, UniProt Q13237)
Method in brief: (§1)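 Competition binding panel (KINOMEscan) across 450 human kinases and disease-relevant mutants, run to the contractor's standard protocol. Values are % control: (test signal − positive control signal)/(negative control signal − positive control signal) × 100, with lower values indicating stronger binding.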

[1] = target: EGFR(L747-E749del, A750P) (Homo sapiens, UniProt P00533, A750P/DEL747-749)
Method in brief: as §1

CDKL1 = CDKL1 (Homo sapiens, UniProt Q00532)
Method in brief: as §1

ABL1-phosphorylated = target: T1, ABL1-phosphorylated (Homo sapiens, UniProt P00519)
T1 construct: phosphorylated
Method in brief: as §1

AAK1 = AAK1 (Homo sapiens, UniProt Q2M2I8)
Method in brief: as §1

MRCKB = target: T2, MRCKB (Homo sapiens, UniProt Q9Y5S2)
T2 construct: gene CDC42BPB
T2 sequence (Q9Y5S2 whole entry): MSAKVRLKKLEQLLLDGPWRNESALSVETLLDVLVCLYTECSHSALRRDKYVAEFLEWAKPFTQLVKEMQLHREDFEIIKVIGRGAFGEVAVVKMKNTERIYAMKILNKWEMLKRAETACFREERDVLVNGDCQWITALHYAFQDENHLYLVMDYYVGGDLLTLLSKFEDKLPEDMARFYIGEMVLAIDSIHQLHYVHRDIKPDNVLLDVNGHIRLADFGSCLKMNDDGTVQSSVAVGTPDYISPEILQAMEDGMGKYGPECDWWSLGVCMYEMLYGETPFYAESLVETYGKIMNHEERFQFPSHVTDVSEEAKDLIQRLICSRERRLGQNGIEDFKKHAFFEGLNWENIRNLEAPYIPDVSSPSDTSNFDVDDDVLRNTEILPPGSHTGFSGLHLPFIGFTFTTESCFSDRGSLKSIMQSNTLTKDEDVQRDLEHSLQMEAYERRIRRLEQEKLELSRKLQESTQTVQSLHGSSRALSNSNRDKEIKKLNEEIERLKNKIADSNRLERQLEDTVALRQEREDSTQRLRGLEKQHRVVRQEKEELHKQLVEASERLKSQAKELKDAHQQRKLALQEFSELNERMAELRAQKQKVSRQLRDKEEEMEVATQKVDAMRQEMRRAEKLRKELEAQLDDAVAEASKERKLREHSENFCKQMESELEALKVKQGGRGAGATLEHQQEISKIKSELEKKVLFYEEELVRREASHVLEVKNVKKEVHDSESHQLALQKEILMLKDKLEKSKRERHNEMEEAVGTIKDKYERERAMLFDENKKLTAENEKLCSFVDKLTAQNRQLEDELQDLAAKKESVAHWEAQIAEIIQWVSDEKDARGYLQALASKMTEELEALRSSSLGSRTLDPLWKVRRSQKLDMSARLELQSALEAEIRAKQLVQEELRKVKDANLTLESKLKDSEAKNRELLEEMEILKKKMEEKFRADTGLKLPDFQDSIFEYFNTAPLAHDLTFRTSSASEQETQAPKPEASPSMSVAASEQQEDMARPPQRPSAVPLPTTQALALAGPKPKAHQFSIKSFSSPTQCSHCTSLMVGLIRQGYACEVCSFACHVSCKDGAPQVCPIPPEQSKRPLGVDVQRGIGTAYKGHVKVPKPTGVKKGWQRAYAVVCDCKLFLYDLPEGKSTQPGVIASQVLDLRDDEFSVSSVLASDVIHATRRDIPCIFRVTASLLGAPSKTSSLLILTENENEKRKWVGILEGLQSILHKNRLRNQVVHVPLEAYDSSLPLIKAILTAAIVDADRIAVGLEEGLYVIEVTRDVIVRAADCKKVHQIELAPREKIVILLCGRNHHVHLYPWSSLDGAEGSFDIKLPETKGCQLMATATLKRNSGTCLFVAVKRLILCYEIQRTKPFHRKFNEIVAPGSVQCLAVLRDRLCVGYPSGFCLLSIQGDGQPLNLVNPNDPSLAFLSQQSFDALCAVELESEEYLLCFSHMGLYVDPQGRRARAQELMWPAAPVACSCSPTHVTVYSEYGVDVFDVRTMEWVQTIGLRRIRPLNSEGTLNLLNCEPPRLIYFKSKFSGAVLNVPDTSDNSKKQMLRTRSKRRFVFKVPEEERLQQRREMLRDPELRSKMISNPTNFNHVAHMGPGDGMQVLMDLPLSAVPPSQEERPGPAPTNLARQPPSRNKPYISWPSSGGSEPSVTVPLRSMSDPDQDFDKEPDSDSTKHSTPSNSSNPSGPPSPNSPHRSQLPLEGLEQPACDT
Method in brief: as §1

[2] = target: T3, RSK1(Kin.Dom.1-N-terminal) (Homo sapiens, UniProt Q15418)
T3 construct: gene RPS6KA1; Kin.Dom.1-N-terminal
T3 sequence (Q15418 whole entry): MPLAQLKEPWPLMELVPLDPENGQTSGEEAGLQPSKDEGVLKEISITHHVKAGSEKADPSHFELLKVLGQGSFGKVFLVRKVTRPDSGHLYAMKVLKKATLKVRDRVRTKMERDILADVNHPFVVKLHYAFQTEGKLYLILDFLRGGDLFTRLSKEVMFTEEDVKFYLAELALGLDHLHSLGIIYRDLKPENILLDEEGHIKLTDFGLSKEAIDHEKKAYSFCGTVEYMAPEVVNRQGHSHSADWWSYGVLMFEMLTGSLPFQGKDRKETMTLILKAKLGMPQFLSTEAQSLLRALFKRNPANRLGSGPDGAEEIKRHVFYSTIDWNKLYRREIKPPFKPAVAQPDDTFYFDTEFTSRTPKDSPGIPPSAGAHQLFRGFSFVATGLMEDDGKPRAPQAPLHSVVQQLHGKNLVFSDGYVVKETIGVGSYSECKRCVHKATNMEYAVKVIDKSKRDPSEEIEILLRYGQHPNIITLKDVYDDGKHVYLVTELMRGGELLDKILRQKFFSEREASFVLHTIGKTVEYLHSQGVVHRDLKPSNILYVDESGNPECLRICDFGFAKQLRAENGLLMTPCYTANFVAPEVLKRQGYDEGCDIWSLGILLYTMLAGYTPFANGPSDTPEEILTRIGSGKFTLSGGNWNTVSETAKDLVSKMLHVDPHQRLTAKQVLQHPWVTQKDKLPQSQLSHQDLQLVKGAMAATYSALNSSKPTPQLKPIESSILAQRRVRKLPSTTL
Method in brief: as §1

CAMK2G = CAMK2G (Homo sapiens, UniProt Q13555)
Method in brief: as §1

MKNK2 = MKNK2 (Homo sapiens, UniProt Q9HBH9)
Method in brief: as §1

MEK4 = target: T4, MEK4 (Homo sapiens, UniProt P45985)
T4 construct: gene MAP2K4
T4 sequence (P45985 whole entry): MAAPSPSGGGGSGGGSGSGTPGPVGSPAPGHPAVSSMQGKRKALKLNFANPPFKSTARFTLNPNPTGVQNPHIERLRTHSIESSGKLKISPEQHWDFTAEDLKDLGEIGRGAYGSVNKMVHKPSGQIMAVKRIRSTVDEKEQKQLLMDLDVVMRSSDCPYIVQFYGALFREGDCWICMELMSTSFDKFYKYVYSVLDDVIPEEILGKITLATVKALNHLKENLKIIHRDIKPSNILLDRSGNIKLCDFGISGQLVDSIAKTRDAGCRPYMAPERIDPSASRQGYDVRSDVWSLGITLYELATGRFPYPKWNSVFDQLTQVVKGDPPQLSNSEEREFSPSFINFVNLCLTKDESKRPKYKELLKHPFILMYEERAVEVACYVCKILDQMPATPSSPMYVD
Method in brief: as §1

GRK1 = GRK1 (Homo sapiens, UniProt Q15835)
GRK1, sequence (Q15835 whole entry): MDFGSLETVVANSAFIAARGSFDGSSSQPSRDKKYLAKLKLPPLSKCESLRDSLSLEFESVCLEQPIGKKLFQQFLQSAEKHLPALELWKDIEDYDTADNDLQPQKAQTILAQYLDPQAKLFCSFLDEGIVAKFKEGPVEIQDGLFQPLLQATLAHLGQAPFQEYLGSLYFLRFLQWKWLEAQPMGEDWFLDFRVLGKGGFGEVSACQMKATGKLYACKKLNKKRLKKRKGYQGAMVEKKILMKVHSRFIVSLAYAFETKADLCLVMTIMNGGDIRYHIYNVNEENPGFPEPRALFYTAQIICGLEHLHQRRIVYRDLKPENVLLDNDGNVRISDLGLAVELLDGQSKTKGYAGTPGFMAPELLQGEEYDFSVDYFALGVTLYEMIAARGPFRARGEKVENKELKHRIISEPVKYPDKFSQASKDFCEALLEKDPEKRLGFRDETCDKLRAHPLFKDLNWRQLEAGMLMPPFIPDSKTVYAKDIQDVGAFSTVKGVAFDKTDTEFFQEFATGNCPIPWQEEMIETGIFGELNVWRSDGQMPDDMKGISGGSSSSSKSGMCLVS
Method in brief: as §1

PIP5K1C = PIP5K1C (Homo sapiens, UniProt O60331)
Method in brief: as §1

EGFR(L858R,T790M) = EGFR(L858R,T790M) (Homo sapiens, UniProt P00533, L858R/T790M)
Method in brief: as §1

BMPR1A = BMPR1A (Homo sapiens, UniProt P36894)
Method in brief: as §1

IKK-alpha = target: T5, IKK-alpha (Homo sapiens, UniProt O15111)
T5 construct: gene CHUK
Method in brief: as §1

PIK3CB = PIK3CB (Homo sapiens, UniProt P42338)
Method in brief: as §1

AKT3 = AKT3 (Homo sapiens, UniProt Q9Y243)
Method in brief: as §1

PCTK2 = target: T6, PCTK2 (Homo sapiens, UniProt Q00537)
T6 construct: gene CDK17
Method in brief: as §1

p38-delta = target: T7, p38-delta (Homo sapiens, UniProt O15264)
T7 construct: gene MAPK13
Method in brief: as §1

LIMK2 = LIMK2 (Homo sapiens, UniProt P53671)
Method in brief: as §1

PIK3CA(E545K) = PIK3CA(E545K) (Homo sapiens, UniProt P42336, E545K)
Method in brief: as §1

PIK3C2G = PIK3C2G (Homo sapiens, UniProt O75747)
PIK3C2G, sequence (O75747 whole entry): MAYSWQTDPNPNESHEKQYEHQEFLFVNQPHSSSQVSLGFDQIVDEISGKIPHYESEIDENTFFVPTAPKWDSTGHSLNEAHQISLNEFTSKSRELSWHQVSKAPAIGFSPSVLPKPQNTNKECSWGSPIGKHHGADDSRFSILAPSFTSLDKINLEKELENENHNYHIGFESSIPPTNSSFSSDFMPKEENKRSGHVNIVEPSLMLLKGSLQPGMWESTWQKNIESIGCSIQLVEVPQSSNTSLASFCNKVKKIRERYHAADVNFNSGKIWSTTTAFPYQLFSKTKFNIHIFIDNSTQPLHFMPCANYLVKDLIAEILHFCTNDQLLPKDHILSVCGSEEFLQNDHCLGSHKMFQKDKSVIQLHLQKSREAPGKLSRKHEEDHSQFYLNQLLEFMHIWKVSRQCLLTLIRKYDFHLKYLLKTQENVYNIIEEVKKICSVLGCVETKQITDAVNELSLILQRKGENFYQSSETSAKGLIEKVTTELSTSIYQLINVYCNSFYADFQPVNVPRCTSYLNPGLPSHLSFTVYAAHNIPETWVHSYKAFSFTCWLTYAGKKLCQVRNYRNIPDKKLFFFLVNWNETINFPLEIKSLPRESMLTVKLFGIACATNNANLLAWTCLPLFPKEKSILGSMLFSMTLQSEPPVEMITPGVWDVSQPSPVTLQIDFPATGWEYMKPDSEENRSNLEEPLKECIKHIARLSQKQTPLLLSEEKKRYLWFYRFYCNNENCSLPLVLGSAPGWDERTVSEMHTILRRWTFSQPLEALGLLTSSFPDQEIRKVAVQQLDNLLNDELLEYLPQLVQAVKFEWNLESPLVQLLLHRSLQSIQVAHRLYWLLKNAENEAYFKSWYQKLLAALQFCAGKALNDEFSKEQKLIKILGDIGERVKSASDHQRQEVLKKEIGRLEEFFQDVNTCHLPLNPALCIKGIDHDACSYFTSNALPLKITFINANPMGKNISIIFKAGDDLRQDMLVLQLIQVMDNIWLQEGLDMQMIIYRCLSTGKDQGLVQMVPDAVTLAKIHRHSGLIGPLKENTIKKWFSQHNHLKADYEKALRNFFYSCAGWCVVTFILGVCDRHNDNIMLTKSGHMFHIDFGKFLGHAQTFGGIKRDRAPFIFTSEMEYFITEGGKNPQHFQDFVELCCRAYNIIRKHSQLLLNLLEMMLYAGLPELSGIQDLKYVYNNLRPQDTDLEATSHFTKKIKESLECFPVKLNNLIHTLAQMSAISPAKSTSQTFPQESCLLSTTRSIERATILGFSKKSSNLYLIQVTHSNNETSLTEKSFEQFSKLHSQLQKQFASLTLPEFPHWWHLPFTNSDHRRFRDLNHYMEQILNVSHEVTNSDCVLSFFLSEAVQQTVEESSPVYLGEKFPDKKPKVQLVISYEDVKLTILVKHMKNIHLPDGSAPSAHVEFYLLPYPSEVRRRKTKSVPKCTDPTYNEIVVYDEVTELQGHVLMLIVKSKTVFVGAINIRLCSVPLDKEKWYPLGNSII
Method in brief: as §1

FLT3(D835Y) = FLT3(D835Y) (Homo sapiens, UniProt P36888, D835Y)
Method in brief: as §1

PRKD2 = PRKD2 (Homo sapiens, UniProt Q9BZL6)
Method in brief: as §1

MST3 = target: T8, MST3 (Homo sapiens, UniProt Q9Y6E0)
T8 construct: gene STK24
Method in brief: as §1

PIP5K1A = PIP5K1A (Homo sapiens, UniProt Q99755)
Method in brief: as §1

**Q.** With `[O-][S@@+](Cc1cncs1)C(c1ccccc1)c1ccccc1` [S-CE-123, (S)-5-((Benzhydrylsulfinyl)Methyl)Thiazole] as the molecule, how does the remaining binding at 2.8 µM (PRKG2) read?
**A.** Its remaining binding at 2.8 µM is 99%.

**Q.** And the remaining binding at 2.8 µM [1]?
**A.** Its remaining binding at 2.8 µM is 93%.

**Q.** What about the remaining binding at 2.8 µM (CDKL1) of the same molecule?
**A.** Its remaining binding at 2.8 µM is 100%.

**Q.** And the remaining binding at 2.8 µM (ABL1-phosphorylated)?
**A.** The remaining binding at 2.8 µM was 100%.

**Q.** And the remaining binding at 2.8 µM (AAK1)?
**A.** The remaining binding at 2.8 µM was 88%.

**Q.** And the remaining binding at 2.8 µM (MRCKB)?
**A.** The remaining binding at 2.8 µM was 98%.

**Q.** And the remaining binding at 2.8 µM [2]?
**A.** Its remaining binding at 2.8 µM is 80%.

**Q.** And the remaining binding at 2.8 µM (CAMK2G)?
**A.** The remaining binding at 2.8 µM was 95%.

**Q.** And the remaining binding at 2.8 µM (MKNK2)?
**A.** Its remaining binding at 2.8 µM is 69%.

**Q.** What about the remaining binding at 2.8 µM (MEK4) of the same molecule?
**A.** Its remaining binding at 2.8 µM is 100%.

**Q.** What about the remaining binding at 2.8 µM (GRK1) of the same molecule?
**A.** The remaining binding at 2.8 µM was 100%.

**Q.** And the remaining binding at 2.8 µM (PIP5K1C)?
**A.** The remaining binding at 2.8 µM was 100%.

**Q.** What about the remaining binding at 2.8 µM (EGFR(L858R,T790M)) of the same molecule?
**A.** The remaining binding at 2.8 µM was 99%.

**Q.** And the remaining binding at 2.8 µM (BMPR1A)?
**A.** Its remaining binding at 2.8 µM is 100%.

**Q.** And the remaining binding at 2.8 µM (IKK-alpha)?
**A.** Its remaining binding at 2.8 µM is 100%.

**Q.** And the remaining binding at 2.8 µM (PIK3CB)?
**A.** Its remaining binding at 2.8 µM is 93%.

**Q.** What about the remaining binding at 2.8 µM (AKT3) of the same molecule?
**A.** Its remaining binding at 2.8 µM is 99%.

**Q.** What about the remaining binding at 2.8 µM (PCTK2) of the same molecule?
**A.** Its remaining binding at 2.8 µM is 93%.

**Q.** And the remaining binding at 2.8 µM (p38-delta)?
**A.** The remaining binding at 2.8 µM was 95%.

**Q.** What about the remaining binding at 2.8 µM (LIMK2) of the same molecule?
**A.** The remaining binding at 2.8 µM was 88%.

**Q.** And the remaining binding at 2.8 µM (PIK3CA(E545K))?
**A.** Its remaining binding at 2.8 µM is 82%.

**Q.** And the remaining binding at 2.8 µM (PIK3C2G)?
**A.** The remaining binding at 2.8 µM was 66%.

**Q.** And the remaining binding at 2.8 µM (FLT3(D835Y))?
**A.** Its remaining binding at 2.8 µM is 99%.

**Q.** What about the remaining binding at 2.8 µM (PRKD2) of the same molecule?
**A.** The remaining binding at 2.8 µM was 98%.

**Q.** What about the remaining binding at 2.8 µM (MST3) of the same molecule?
**A.** The remaining binding at 2.8 µM was 87%.

**Q.** What about the remaining binding at 2.8 µM (PIP5K1A) of the same molecule?
**A.** Its remaining binding at 2.8 µM is 95%.
